Data reported in US7705119B1, “Compositions and methods useful for treating circulatory and hypovolemic shock” (University of Kentucky Research Foundation, priority 2007, dated 2010).
“Also recorded” adds a separate entry of the source. Square brackets hold non-standard residues; d marks the D form. Peptide text beside a SMILES is read from it.

Key:
Sprague-Dawley rats [1] = assay: Post hemorrhage Delt-E infusion, volume-controlled hemorrhagic shock model without fluid resuscitation; format: in vivo, rat; details: 14.0 mg/kg i.v. post hemorrhage
Description: A murine hemorrhagic shock model was used to evaluate the effects of administration of Deltorphin-E (Delt-E), without concomitant fluid resuscitation, on hemodynamic status, plasma lactate levels, and survival rates.
The hemorrhagic shock model used was a volume-controlled model similar to that of Summers et al. Acad Emerg Med. 10:587-93 (2003). Forty-six male Sprague-Dawley rats (about 341-411 grams) were acclimated to a laboratory environment for a week. In dwelling heparinized PE 10 catheters were placed in the femoral artery and the femoral vein of anesthetized rats. […]
Treatment: Twenty-four hours after catheter placement, test rats (n=24) were infused in the femoral vein with either 2.85, 4.2, 5.5 or 14 mg/kg of Delt-E (Tyr-D-Ala-Phe-Ala-Ile-Gly-Asp-Phe-Ser-Ile-NH2; SEQ ID NO: 1) dissolved in 1.0 ml Lactated Ringers (LR) solution pH 7.4. […] Prior to hemorrhage MAP and HR were recorded to establish baseline levels. […] After the final mL of blood was removed the various venous catheter treatment injections were administered, MAP and HR were recorded continuously for the duration of survival or up to 6 hours.
Biomarker protocols: Survival time was determined by the post hemorrhage time after injection until death, or a predetermined 360 minute survival interval. […] Pulse pressure was determined by the difference (mmHg) between the systolic and diastolic pressure during a single cardiac cycle. […]

Sprague-Dawley rats [2] = assay: 30 minute inhibitor pre-treatment before 5.5 mg/kg Delt-E post hemorrhage injection; format: in vivo, rat; details: for Maximum HR in BPM ± S.E. / Maximum MAP in mmHg ± S.E. / Survival Time in minutes ± S.E.: then 5.5 mg/kg Delt-E post hemorrhage
Description: The hemorrhagic shock model used was a volume-controlled model similar to that of Summers et al. Acad Emerg Med. 10:587-93 (2003). Forty-six male Sprague-Dawley rats (about 341-411 grams) were acclimated to a laboratory environment for a week. In dwelling heparinized PE 10 catheters were placed in the femoral artery and the femoral vein of anesthetized rats. The two catheters were combined and exited suprascapularly, tied in place with braided silk, and covered with a piece of hypoallergenic mesh to prevent kinking. Rats were then placed in recovery cages for 24 hr, allowed access to food and water, and allowed unrestricted access to both catheters. The femoral artery catheter was used for volume-controlled hemorrhage and blood pressure measurements and the femoral vein catheter was used for Delt-E infusion. Each selected animal was randomly assigned 1 of […] post hemorrhage treat groups: 1 mL/100 g saline control (n=6), 2.85 mg/kg Delt-E (n=6), 4.2 mg/kg Delt-E (n=6), 5.5 mg/kg Delt-E (n=6), and 14 mg/kg Delt-E (n=6). Animals were also selected and randomly assigned to 1 of 4, 30-minute pre-treatment inhibitor groups: Naltriben Methane Sulfonate (NTB) (n=4), Naltrexone (n=4), Glibenclamide (n=4), and 7-Dehydrobenzylidine naltrexone (BNTX) (n=4) followed by a 5.5 mg/kg injection of Delt-E.
Opioid Inhibitors: The opioid inhibitors (naltrexone, naltriben methane sulfonate (NTB) and 7 Dehydrobenzylidine naltrexone (BNTX) and Glibenclamide were administered 30 minutes prior to hemorrhage. MAP and HR were recorded continuously before hemorrhage to ensure no adverse affects on MAP or HR occurred as a result of the pre-injection. At the end of 30 minutes, volume-controlled hemorrhage was induced followed by a post hemorrhage injection of 5.5 mg/kg Delt-E, the optimal dose found to increase hemodynamic stability. Naltrexone (10 mg/kg, Sigma-Aldrich), NTB (1 mg/kg, Sigma-Aldrich), and BNTX (1 mg/kg, Tocris Bioscience) were used as 30 minute pre-injection opioid receptor antagonists. Glibenclamide (10 mg/kg, Sigma Aldrich) was used as a KATP channel blocker.
Data Analysis: Statistical analysis was preformed using SPSS software with P value <0.05 being considered significant. The survival, MAP, HR and lactic acid values were analyzed using repeated measures analysis of variance (ANOVA) between groups to identify differences between groups. To evaluate differences between means, the ANOVA with post hoc least square differences were used (LSD analysis).

KATP channels = details: Wild et al. 1991; cited from earlier work
[3] = inhibitor 10 mg/kg 30 min prior to hemorrhage
[4] = inhibitor 1 mg/kg 30 min prior to hemorrhage

Compound | blockade of post hemorrhage hemodynamic recovery / survival benefits of 5.5 mg/kg Delt-E (Sprague-Dawley rats [2]; [3]) | Maximum HR in BPM ± S.E. (Sprague-Dawley rats [2]; [3]) | Maximum MAP in mmHg ± S.E. (Sprague-Dawley rats [2]; [3]) | Survival Time in minutes ± S.E. (Sprague-Dawley rats [2]; [3]) | blockade of post hemorrhage hemodynamic recovery / survival benefits of 5.5 mg/kg Delt-E (Sprague-Dawley rats [2]; [4]) | Maximum HR in BPM ± S.E. (Sprague-Dawley rats [2]; [4]) | Maximum MAP in mmHg ± S.E. (Sprague-Dawley rats [2]; [4]) | Survival Time in minutes ± S.E. (Sprague-Dawley rats [2]; [4]) | other results
CC[C@H](C)[C@H](NC(=O)[C@H](CO)NC(=O)[C@H](Cc1ccccc1)NC(=O)[C@H](CC(=O)O)NC(=O)CNC(=O)[C@@H](NC(=O)[C@H](C)NC(=O)[C@H](Cc1ccccc1)NC(=O)[C@@H](C)NC(=O)[C@@H](N)Cc1ccc(O)cc1)[C@@H](C)CC)C(N)=O [Delt-E, Tyr-(D-Ala)-Phe-Ala-Ile-Gly-Asp-Phe-Ser-Ile-NH2] (H-Y[dA]FAIGDFSI-NH2) |  |  |  |  |  |  |  |  | Toxicity of dose (Sprague-Dawley rats [1]): toxic
COc1ccc(Cl)cc1C(=O)NCCc1ccc(S(=O)(=O)NC(=O)NC2CCCCC2)cc1 [Glibenclamide] | did not alter the survival advantage; also recorded: not blocked | 393 ± 43 BPM | 56 ± 10 mmHg | 347 ± 15 min |  |  |  |  | 
DPDPE |  |  |  |  |  |  |  |  | cardioprotective effect in the presence of Glibenclamide (KATP channels): could be negated by Glibenclamide
O=C1/C(=C/c2ccccc2)C[C@@]2(O)[C@H]3Cc4ccc(O)c5c4[C@@]2(CCN3CC2CC2)[C@H]1O5 [BNTX, 7-Dehydrobenzylidine naltrexone] |  |  |  |  | did not block | 400 ± 77 BPM | 55 ± 12 mmHg | 356 ± 3 min | 
Oc1ccc2c3c1O[C@H]1c4oc5ccccc5c4C[C@@]4(O)[C@@H](C2)N(CC2CC2)CC[C@]314 [NTB, Naltriben Methane Sulfonate] |  |  |  |  | blocked | 423 ± 68 BPM | 37 ± 13 mmHg | 58 ± 12 min | 
O=C1CC[C@@]2(O)[C@H]3Cc4ccc(O)c5c4[C@@]2(CCN3CC2CC2)[C@H]1O5 [Naltrexone] | partially blocked | 419 ± 75 BPM | 49 ± 8 mmHg | 95 ± 11 min |  |  |  |  | 
